These results are taken from US20250339409A1, “USES OF PAN BET INHIBITORS” (VYNE THERAPEUTICS INC., priority 2021, published 2025).

Structures are written as SMILES. Where “and” joins values, the source holds several entries; their conditions need not be identical. Equal entries are not always repeated.

Data set [1] can be described thus: Chemical and physical stability of formulations (HPLC, polarized light microscopy). The data set is classed as physicochemical. Particulars: 3 m at 25° C. The protocol:
For Polarized Light Microscopy evaluation, the samples of the formulations in petrolatum are heated to 55° C. to melt most of the petrolatum crystals and make visible crystals of API. The API crystals are measured and photomicrographs are taken.
The microscopy samples of API are prepared by dispersing some (unmeasured amount) of API powder in a drop of mineral oil. The dispersion is done by a spatula. The concentration of API in mineral oil is unknown.
The stability of prepared formulations was assessed by HPLC testing of samples of two formulations, prepared with API from two different sources. […] The area % of the main peak in the samples after temperature exposure was compared to area % of the main peak in initial samples of the same batches and in the corresponding APIs. The samples exposed to stability challenge were also evaluated for presence of new peaks, not observed in API or in initial samples.

The next data set relates to E-cadherin. Kind of data set: RHE vitiligo model: E-cadherin secretion by ELISA. Particulars: for E-Cad (% stimulated ctl) Mean / E-Cad (% stimulated ctl): TNF-α/IFN-γ stimulated RHE; for E-Cad (% stimulated ctl) Mean / E-Cad (% stimulated ctl) / Mean conc E-Cad / Conc E-Cad: 48 h; for E-Cad (% stimulated ctl) / Conc E-Cad: replicates N1-N3; for Mean conc E-Cad / Conc E-Cad: culture medium of RHE, TNF-α 12 ng/ml/IFN-γ 12 ng/ml; for E-Cadherin secretion: RHE stimulated with TNF-α/IFN-γ. Format: cell-based, human. The protocol:
[…] Three epidermis samples per condition are fixed in 4% formaldehyde solution and embedded in paraffin for further analysis (morphology analysis, melanin and melanocytes localisation/quantification). Three other epidermis samples per condition are put in a specific lysis buffer for total RNA extraction.
At the end of the treatments, culture media is collected (from 3 epidermis per condition), aliquoted and stored at −20° C. until use in ELISA assays. The quantity of MMP-9 secreted by the epidermis at the end of the treatments is analysed using the human MMP-9 Quantikine ELISA kit (Bio-Techne; DMP900). The secretion of E-cadherin in culture media is measured using to human E-cadherin Quantikine ELISA kit (Bio-Techne; DCADE0) dedicated for the measurement of natural human E-cadherin in culture supernates, serum, plasma, urine, and saliva.
The ELISAs are performed following the instructions of the supplier. The quantities of MMP-9 and E-cadherin are determined by comparisons with standard curves performed with recombinant human MMP-9 or E-cadherin provided in the kits.
Quantification of secretion of MMP-9 and E-cadherin by ELISA from collected culture medium was conducted in accordance with Method E. The results, shown in FIG. 5A and FIG. 5B are based on Tables 23 and 24 respectively and presented in percentage of release in comparison to the stimulated control. A statistical analysis (student t-test) was performed to compare the effects of the treatments with the formulations to the vehicle (with $: 0.05>p>0.01; $$: 0.01>p>0.001; and $$$: p<0.001). The same analysis was performed to compare the effects of the vehicle and of the unstimulated control to the stimulated control (with *: 0.05>p>0.01; **: 0.01>p>0.001; and ***: p<0.001). The analysis was performed from three replicates per condition (n=3). The mean of the three values and the standard deviation are presented on the histograms in FIG. 5A and FIG. 5B. As shown in Table 21 and FIG. 5A and consistent with the results of Part A, MMP-9 secretion was increased following the stimulation with the cytokines, which validates the assay.
A general note: In an ELISA, binding on a coated surface is turned into a signal by an enzyme label.

Regarding `Cn1cc(-c2cccc(O)c2Oc2ccccc2)c2cc[nH]c2c1=O` [BETi1], in data set [1], the “degradation in compositions comprising suspended BETi1” value is reported as “no degradation of BETi1 being observed”. The “E-Cad (% stimulated ctl) Mean” value in the data set with E-cadherin (BETi1 0.001%) is listed as 138%; with E-cadherin (BETi1 0.01%), 118%; in the data set with E-cadherin (BETi1 0.1%), 59%; in the data set on E-cadherin (BETi1 1%), 72%. Further, the “E-Cad (% stimulated ctl)” value is 129% (2×) and 156% in the data set with E-cadherin (BETi1 0.001%); 117% and 109% and 128% in the data set with E-cadherin (BETi1 0.01%); 61% and 56% and 62% in the data set with E-cadherin (BETi1 0.1%); 71% and 72% and 74% with E-cadherin (BETi1 1%). The “Mean conc E-Cad” value in the data set on E-cadherin (BETi1 0.001%) was found to be 3.2 ng/mL; in the data set with E-cadherin (BETi1 0.01%) it was 2.7 ng/mL; in the data set on E-cadherin (BETi1 0.1%), 1.4 ng/mL; in the data set with E-cadherin (BETi1 1%) it was 1.7 ng/mL. The “Conc E-Cad” value with E-cadherin (BETi1 0.001%) was 3.0 ng/ml (2×) and 3.6 ng/ml; with E-cadherin (BETi1 0.01%), 2.7 ng/mL and 2.5 ng/mL and 2.9 ng/mL; in the data set on E-cadherin (BETi1 0.1%), 1.4 ng/ml (2×) and 1.3 ng/ml; in the data set on E-cadherin (BETi1 1%), 1.6 ng/ml and 1.7 ng/ml (2×). For the same molecule, the E-Cadherin secretion result in the data set on E-cadherin (listed as 1% BETi1) is on record as “about 118%”; with E-cadherin (listed as BETi1 0.1%), 59%.
